We go through 6 molecules from patent publication US11090310B2, “Methods and compositions for treating hypertriglyceridemia” (THE REGENTS OF THE UNIVERSITY OF CALIFORNIA, priority 2016, dated 2021).

The nature of experiment [1]: Plasma triglyceride levels of patients with GPIHBP1 autoantibodies under drug treatment (case follow-up). The experiment is classed as in vivo, human. The following applies: for effect of treatment on plasma triglycerides / hypertriglyceridemia (in words): case reports of single patients (111, 157, 164).
For another experiment, the system named is autoantibodies. The following applies: in patients, literature reports; cited from earlier work.
The target of the next experiment is T1, V5-tagged human LPL (Homo sapiens, UniProt P06858).
T1 construct: made in house
T1 sequence (P06858 28-475): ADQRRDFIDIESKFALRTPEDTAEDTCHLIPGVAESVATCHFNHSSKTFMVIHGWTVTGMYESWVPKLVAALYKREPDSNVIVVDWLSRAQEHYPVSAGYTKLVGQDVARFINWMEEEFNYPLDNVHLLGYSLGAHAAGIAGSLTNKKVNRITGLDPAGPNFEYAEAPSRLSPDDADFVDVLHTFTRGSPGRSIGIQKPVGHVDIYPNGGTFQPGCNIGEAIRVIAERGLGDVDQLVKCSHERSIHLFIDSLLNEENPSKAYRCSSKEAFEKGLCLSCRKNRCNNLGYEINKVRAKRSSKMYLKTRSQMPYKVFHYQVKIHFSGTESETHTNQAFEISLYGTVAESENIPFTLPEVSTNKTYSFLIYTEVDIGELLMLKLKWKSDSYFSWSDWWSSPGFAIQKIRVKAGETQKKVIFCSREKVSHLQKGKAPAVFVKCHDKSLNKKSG
The experiment can be described thus: Cell-based LPL-GPIHBP1 binding assay of GPIHBP1 variants. The following applies: transfected CHO pgsA-745 cells or HUVEC. The method, then: Expression vectors for S-protein-tagged wild-type (wt) GPIHBP1, GPIHBP1-G175R, and GPIHBP1-W109S (or the empty vector) were transfected into CHO pgsA-745 cells or human umbilical vein endothelial cells (HUVEC). After 1 day, the cells were washed three times in PBS and incubated for 1 h at 4° C. with V5-tagged human LPL (900 ng/well). Then the cells were washed six times in PBS, and cell lysates were collected in RIPA buffer (Sigma) containing a protease inhibitor cocktail (Roche). Proteins were separated by SDS-PAGE, and western blots were performed under reducing conditions with a goat antibody against the S-protein tag (Abcam, 5 μg/ml), followed by an IRdye680-donkey anti-goat IgG (LI-COR, 1:2000) and an IRdye800-V5 antibody (1:500).

Take `COc1c(C)c2c(c(O)c1C/C=C(\C)CCC(=O)OCCN1CCOCC1)C(=O)OC2` [Mycophenolate mofetil]: the “effect of treatment on plasma triglycerides / hypertriglyceridemia (in words)” value in experiment [1] is reported as “failed to lower the plasma triglyceride levels”. Also, the “Follow-up (mg/dl): follow-up plasma triglyceride levels after treatment” value in experiment [1] (single patients: 101 (prednisolone 10 mg/day, salazosulfapyridine 1000 mg/day), 111, 164 (mycophenolate mofetil 750 + 500 mg/day, hydroxychloroquine 100 mg/day)) is 2,573-4,085 mg/dl.

Turning to Belimumab, the reduction of autoantibodies result in the experiment with autoantibodies was “reduce autoantibodies”.

On to Rituximab, for which the reduction of autoantibodies result in the experiment with autoantibodies is listed as “reducing the production of autoantibodies in patients”.

For the molecule n−3 fatty acids, the “effect of treatment on plasma triglycerides / hypertriglyceridemia (in words)” value in experiment [1] is recorded as “resistant”.

B1: GPIHBP1-G175R: GPIHBP1 with G175R missense substitution in the carboxyl-terminal hydrophobic domain (protein)
chain: QTQQEEEEEDEDHGPDDYDEEDEDEVEEEETNRLPGGRSRVLLRCYTCKSLPRDERCNLTQNCSHGQTCTTLIAHGNTESGLLTTHSTWCTDSCQPITKTVEGTQVTMTCCQSSLCNVPPWQSSRVQDPTG
modifications: left off: small tags and cut ends
notes: GPIHBP1 with G175R missense substitution in the carboxyl-terminal hydrophobic domain
For the molecule B1, the “LPL binding by GPIHBP1 variant expressed on cells” value with V5-tagged human LPL is on record as “binds LPL avidly”.

B2: GPIHBP1-W109S: mutant GPIHBP1 which lacks the ability to bind LPL, used as control (protein)
chain: QTQQEEEEEDEDHGPDDYDEEDEDEVEEEETNRLPGGRSRVLLRCYTCKSLPRDERCNLTQNCSHGQTCTTLIAHGNTESGLLTTHSTSCTDSCQPITKTVEGTQVTMTCCQSSLCNVPPWQSSRVQDPTG
modifications: left off: small tags and cut ends
With B2, the “LPL binding by GPIHBP1 variant expressed on cells” value with V5-tagged human LPL is recorded as “lacks the ability to bind LPL”.
